Measurements from EP4707393A1, “DOUBLE-STRANDED SIRNA, CONJUGATE THEREOF AND USE THEREOF” (CMS Research & Development Pte. Ltd., priority 2023, dated 2024).

What was measured:
[1] = system: human LPA gene (Genbank number: NM_005577.4); test: Inhibitory activity against LPA mRNA, psiCHECK-2 dual-luciferase reporter vector in Huh7 cells; format: cell-based; settings: Huh7 cells transfected with LPA_psiCHECK-2 plasmid, RNAiMAX transfection
Method: A stock solution was prepared by dissolving in PBS and stored at -20 °C.
The human LPA gene (Genbank number: NM_005577.4) was cloned into the psiCHECK™-2 vector.
Huh7 cells were cultured in DMEM (Gibco-11995-065, 500 mL) medium, supplemented with FBS (ExCellBio-FSP500, 57 mL), Penicillin-Streptomycin solution (Hyclone-SV30010, 5.7 mL), GlutaMAX™ (Gibco-35050-061, 5.7 mL) and Non-Essential Amino Acids Solution (Gibco-11140050, 5.7 mL).
On Day 1, a method for transfection of the LPA_PSICHECK (TM)-2 plasmid is briefly described as follows: Huh7 cells were washed with DPBS, followed by digestion with 0.05% trypsin, gently pipetted into single cells in DMEM containing 10% FBS, and counted. Plasmid DNA was transferred into Huh7 cells using Fugene HD. The transfected cells were seeded into 96-well plates at a density of 10,000 cells per well, with 100 µL culture medium per well. The cells were incubated overnight in a 5% CO2 incubator at 37 °C.
On Day 2, the test compounds were diluted serially with PBS to 3 concentrations.
RNAiMAX transfection reagent was prepared by blending homogeneously with Opti-MEM at a ratio of RNAiMAX: Opti-MEM=3:47 in a 15 mL centrifuge tube as needed. The compounds were mixed with the RNAiMAX/Opti-MEM (1:1) and incubated for 15 min. The compound-containing RNAiMAX/Opti-MEM mixture was diluted 10-fold with fresh medium and blended homogeneously.
The medium in each well was aspirated, and then 100 µL of the fresh compound-containing medium was added, and then incubated in a 5% CO2, 37 °C incubator.
Experimental procedures refer to DUAL-GLO® Dual Luciferase Assay System instructions, briefly described as follows: Taking out the cells from the incubator, aspirating and discarding the supernatant, adding 75µL fresh culture medium and 75µL detection reagent, shaking for 10 minutes in the dark, and after the cells had been fully lysed, transfering100µL sample to an opaque whiteboard for detecting the Firefly luminescence signal; adding 50 µL Dual-Glo®Stop & Glo® test reagent to each well and detecting the Renilla luciferase signal after shaking for 10 minutes in the dark. The ratio of the reporter signal to the internal control reporter signal was calculated for each well.
[formula] % Inhibition = (1-Sampleratio/RNAiMAXcontrolratio) × 100% [formula]

hPBMCs = test: Immunogenicity test in hPBMCs (IL-6 and TNF-α ELISA of supernatant); format: cell-based, human; settings: donor 1 hPBMCs, 18-20 h
Method: 1 Experimental material • 1.1 Double-stranded siRNA conjugates • 1.2 hPBMCs, purchased from Shanghai Sailybio Medical Co., LTD. • 1.3 Main reagents: Penicillin-Streptomycin (Cat. No.: 15140122), RNase-free water (Cat. No.: AM9938), IL-6 ELISA kit (Cat. No.: 555220), TNF-α ELISA kit (Cat. No.: 555212), LPS (Cat. No.: L2630), etc. 2 Experimental method • 2.1 Compound Preparation: Compounds were prepared as stock solutions with enzyme-free water. Compound weight = powder weight * purity. The concentration of prepared solutions was 900 µg/mL, followed by three-fold serial dilution with enzyme-free water. Each concentration was diluted 10-fold with 1640 medium, resulting in a final enzyme-free water content of 5.0%. • 2.2 Experimental procedure: • 2.2.1 PBMC cells were resuscitated one day in advance and incubated overnight in 1640 complete medium. • 2.2.2 On the day of the experiment, PBMC cells were centrifuged at 300 × g for 8 minutes, and the cell density was adjusted to 1.6 × 10^6 mL with 1640 complete medium. The cells were then added to a 96-well plate, 125 µL per well, and incubated in a 37 °C, 5% CO2 incubator for 15 minutes. • 2.2.3 The diluted test compounds were added to the 96-well plate according to the plate map, all in duplicate, 125 µL for each well; the positive control group and the blank group were added with an equal volume of 1640 complete culture medium containing the same amount of enzyme-free water. • 2.2.4 After gently shaking, the well plates were incubated in an incubator at 37 °C for 18-20 h. The supernatant was collected by centrifugation, and secretions of TNF-α and IL-6 were detected by ELISA. • 2.2.5 Data were analyzed using GraphPad Prism 8 software. 3 Experimental results Table 10. IL-6 and TNF-α levels in the cell supernatant of donor 1 hPBMCs treated with different doses of test compounds

Substance: Z37: siRNA conjugate: sense SEQ ID NO:51, ligand D18 at 3' end of sense strand, antisense SEQ ID NO:76 (sense CCTGCCAAGCTTGGTCATCTA; antisense TAGATGNCCAAGCTTGGCNGGTT; ligand D18 at sense 3' end; listed as RNA; modified_base 1..2: mod_base = OTHER; note = 2'-O-methylcytidine; modified_base 3: mod_base = OTHER; note = 2'-O-methyluridine; modified_base 4: mod_base = OTHER; note = 2'-O-methylguanosine; modified_base 5..6: mod_base = OTHER; note = 2'-O-m; modified_base 1: mod_base = OTHER; note = E-type vinylphosphonate-modified 2'-O-methyluridine; modified_base 2: mod_base = OTHER; note = 2'-deoxyadenosine; modified_base 4: mo)
- EC50 [1]: 0.23 nM

Substance: Z41: siRNA conjugate: sense SEQ ID NO:49, ligand D01 at 3' end of sense strand, antisense SEQ ID NO:79 (sense CAGCCCCTTATTGTTATACGA; antisense NCGTATNACAATAAGGGGCNGTT; ligand D01 at sense 3' end; listed as RNA; modified_base 1: mod_base = OTHER; note = 2'-O-methylcytidine; modified_base 2: mod_base = OTHER; note = 2'-O-methyladenosine; modified_base 3: mod_base = OTHER; note = 2'-O-methylguanosine; modified_base 4..7: mod_base = OTHER; note = 2'-O-me; note = n is B29; note = 2'-deoxycytidine; modified_base 4: mod_base = OTHER; note = 2'-O-methyluridine; m)
- EC50 [1]: 0.09 nM
- IL-6 (hPBMCs; 5 µg/mL): 1362.7 pg/mL
- TNF alpha (hPBMCs; 5 µg/mL): 37.3 pg/mL
- IL-6 (hPBMCs; 15 µg/mL): 2424.8 pg/mL
- TNF alpha (hPBMCs; 15 µg/mL): 94.0 pg/mL
- IL-6 (hPBMCs; 45 µg/mL): 1537.6 pg/mL
- TNF alpha (hPBMCs; 45 µg/mL): 44.7 pg/mL

Substance: Z49: siRNA conjugate: sense SEQ ID NO:51, ligand D01 at 3' end of sense strand, antisense SEQ ID NO:85 (sense CCTGCCAAGCTTGGTCATCTA; antisense NAGATGNCCAAGCTTGGCNGGTT; ligand D01 at sense 3' end; listed as RNA; modified_base 1..2: mod_base = OTHER; note = 2'-O-methylcytidine; modified_base 3: mod_base = OTHER; note = 2'-O-methyluridine; modified_base 4: mod_base = OTHER; note = 2'-O-methylguanosine; modified_base 5..6: mod_base = OTHER; note = 2'-O-m; modified_base 1: mod_base = OTHER; note = n is B36; modified_base 2: mod_base = OTHER; note = 2'-deoxyadenosine; note = 2'-O-methyladenosine)
- EC50 [1]: 0.63 nM

Substance: Z50: siRNA conjugate: sense SEQ ID NO:51, ligand D01 at 3' end of sense strand, antisense SEQ ID NO:86 (sense CCTGCCAAGCTTGGTCATCTA; antisense TCTAGATNACCAAGCTTGGCAGG; ligand D01 at sense 3' end; listed as RNA; modified_base 1..2: mod_base = OTHER; note = 2'-O-methylcytidine; modified_base 3: mod_base = OTHER; note = 2'-O-methyluridine; modified_base 4: mod_base = OTHER; note = 2'-O-methylguanosine; modified_base 5..6: mod_base = OTHER; note = 2'-O-m; modified_base 1: mod_base = OTHER; note = 2'-fluoroadenosine; modified_base 5: mod_base = OTHER; note = 2'-O-methyl)
- EC50 [1]: 0.41 nM

Substance: Z51: siRNA conjugate: sense SEQ ID NO:49, ligand D01 at 3' end of sense strand, antisense SEQ ID NO:87 (sense CAGCCCCTTATTGTTATACGA; antisense TCGTATNACAATAAGGGGCNGTT; ligand D01 at sense 3' end; listed as RNA; modified_base 1: mod_base = OTHER; note = 2'-O-methylcytidine; modified_base 2: mod_base = OTHER; note = 2'-O-methyladenosine; modified_base 3: mod_base = OTHER; note = 2'-O-methylguanosine; modified_base 4..7: mod_base = OTHER; note = 2'-O-me; note = 2'-O-methyluridine; note = 2'-deoxycytidine; modified_base 4: mod_base = OTHER; note = 2'-O-methyl)
- EC50 [1]: 0.31 nM

Substance: Z52: siRNA conjugate: sense SEQ ID NO:53, ligand D01 at 3' end of sense strand, antisense SEQ ID NO:88 (sense CTTGCCAAGCTTGGTCATCTA; antisense TCTAGATGNCCAAGCTTGGCAAG; ligand D01 at sense 3' end; listed as RNA; modified_base 1: mod_base = OTHER; note = 2'-O-methylcytidine; modified_base 2: mod_base = OTHER; note = 2'-O-methyluridine; modified_base 3: mod_base = OTHER; modified_base 4: mod_base = OTHER; note = 2'-O-methylgua; note = 2'-fluoroadenosine; modified_base 5: mod_base = OTHER; note = 2'-O-methyl)
- EC50 [1]: 0.14 nM
